Results published in patent publication US8987314B2, “Amide, urea or sulfone amide linked benzothiazole inhibitors of endothelial lipase” (Bristol-Myers Squibb Company, priority 2012, dated 2015).
Read-outs that look alike come from different tables or passages of the source.

Key:
hepatic lipase (HL) = hepatic lipase (HL) (Homo sapiens (Human), UniProt P11150); experiment: HL assay: hepatic lipase activity with fluorescent substrate A10070 in DMPG vesicles; format: biochemical
Outline: (§1)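 EL from conditioned medium of HT-1080 cells engineered to overexpress endogenous EL; HL partially purified from conditioned medium of HL-overexpressing COS cells. Enzyme preincubated with compound 30 min at 37° C in 50 mM HEPES pH 8.0, 50 mM NaCl, 1 mM CaCl2; DMPG vesicles carrying FRET substrate (0.11 mole fraction) then added.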

Endothelial lipase (EL) = Endothelial lipase (EL) (Homo sapiens (Human), UniProt Q9Y5X9); experiment: EL assay: endothelial lipase activity with fluorescent substrate A10070 in DMPG vesicles; format: biochemical
Outline: as §1

[1] = HL partially purified from conditioned media of COS cells, 30 min incubation with compound at 37° C., A10070/DMPG vesicles
[2] = EL from conditioned media of HT-1080 cells, 30 min incubation with compound at 37° C., A10070/DMPG vesicles

Chain of hepatic lipase (HL) (P11150 23-499, species assumed): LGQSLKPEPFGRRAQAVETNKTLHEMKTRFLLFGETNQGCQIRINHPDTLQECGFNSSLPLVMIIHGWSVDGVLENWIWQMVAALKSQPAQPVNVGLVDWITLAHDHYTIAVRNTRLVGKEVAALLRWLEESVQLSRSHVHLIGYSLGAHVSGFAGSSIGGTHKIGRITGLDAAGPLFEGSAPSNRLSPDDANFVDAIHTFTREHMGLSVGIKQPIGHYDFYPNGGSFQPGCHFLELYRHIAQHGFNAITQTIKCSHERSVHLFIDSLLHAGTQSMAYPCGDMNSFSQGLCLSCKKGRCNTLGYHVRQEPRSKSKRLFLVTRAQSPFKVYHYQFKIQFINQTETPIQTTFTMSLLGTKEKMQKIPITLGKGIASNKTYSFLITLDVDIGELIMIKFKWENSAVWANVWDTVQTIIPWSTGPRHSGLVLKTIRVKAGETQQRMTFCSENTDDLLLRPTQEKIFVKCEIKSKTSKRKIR
Chain of Endothelial lipase (EL) (Q9Y5X9 21-500): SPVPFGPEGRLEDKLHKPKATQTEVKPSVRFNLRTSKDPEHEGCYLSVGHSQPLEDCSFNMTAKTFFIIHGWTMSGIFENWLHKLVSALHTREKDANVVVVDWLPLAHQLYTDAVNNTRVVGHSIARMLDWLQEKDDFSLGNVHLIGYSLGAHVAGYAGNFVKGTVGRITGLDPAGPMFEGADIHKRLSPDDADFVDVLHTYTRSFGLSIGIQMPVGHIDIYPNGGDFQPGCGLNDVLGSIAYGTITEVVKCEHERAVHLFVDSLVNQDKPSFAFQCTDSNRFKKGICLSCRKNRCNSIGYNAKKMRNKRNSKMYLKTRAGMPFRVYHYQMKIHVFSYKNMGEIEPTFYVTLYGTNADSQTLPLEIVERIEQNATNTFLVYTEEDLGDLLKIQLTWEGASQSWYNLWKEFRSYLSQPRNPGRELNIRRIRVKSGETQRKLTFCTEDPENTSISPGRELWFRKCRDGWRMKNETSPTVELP

| Compound | IC50 (hepatic lipase (HL); [1]) [nM] | IC50 (Endothelial lipase (EL); [2]) [nM] | IC50 (hepatic lipase (HL)) [nM] | IC50 (Endothelial lipase (EL)) [nM] |
| --- | --- | --- | --- | --- |
| NS(=O)(=O)CCNC(=O)C(c1nc2cc(F)c(-c3ccccc3)cc2s1)S(=O)(=O)CCN1CCOCC1 (stereo not drawn) [Example B160, 2-(5-fluoro-6-phenyl-1,3-benzothiazol-2-yl)-2-((2-(4-morpholinyl)ethyl)sul-fonyl)-N-(2-sulfamoylethyl)acetamide] |  |  | 20 | < 10 |
| NCCS(=O)(=O)C(C(=O)NCCS(N)(=O)=O)c1nc2ccc(-c3ccccc3)cc2s1 (stereo not drawn) [Example B161, 2-((2-aminoethyl)sulfonyl)-2-(6-phenyl-1,3-benzothiazol-2-yl)-N-(2-sulfamoylethyl)acetamide] |  |  | 22 | < 10 |
| COCCn1cc(-c2ccc3nc(C(C(=O)NCCS(N)(=O)=O)S(C)(=O)=O)sc3c2)cn1 (stereo not drawn) [Example B162, 2-(6-(1-(2-Methoxyethyl)-1H-pyrazol-4-yl)-1,3-benzothiazol-2-yl)-2-(methylsulfonyl)-N-(2-sulfamoylethyl)acetamide] | 995 | < 10 |  |  |
| COCCn1cc(-c2ccc3nc(C(C(=O)NCCS(N)(=O)=O)S(=O)(=O)Cc4ccc(F)cc4)sc3c2)cn1 (stereo not drawn) [Example B163, 2-((4-fluorobenzyl)sul-fonyl)-2-(6-(1-(2-methoxyethyl)-1H-pyrazol-4-yl)-1,3-benzothiazol-2-yl)-N-(2-sulfamoylethyl)a-cetamide] |  |  | 2550 | 28 |
| COCCn1cc(-c2ccc3nc(C(C(=O)NCCS(N)(=O)=O)S(=O)(=O)CC4CC4)sc3c2)cn1 (stereo not drawn) [Example B165, 2-((cyclopropylmethyl)sul-fonyl)-2-(6-(1-(2-methoxyethyl)-1H-pyrazol-4-yl)-1,3-benzothiazol-2-yl)-N-(2-sulfamoylethyl)a-cetamide] |  |  | 317 | 37 |
| COCCN(C)C(=O)c1ccc(-c2ccc3nc(C(C(=O)NCCS(N)(=O)=O)S(C)(=O)=O)sc3c2)cc1 (stereo not drawn) [Example B172, N-(2-Methoxyethyl)-N-methyl-4-(2-(1-(methylsulfonyl)-2-oxo-2-((2-sulfamoylethyl)amino)ethyl)-1,3-benzothiazol-6-yl)benzamide] | 77 | < 10 |  |  |
| CS(=O)(=O)C(C(=O)NCCS(N)(=O)=O)c1nc2ccc(-c3ccc(C(=O)O)cc3)cc2s1 (stereo not drawn) [Example B173, 4-(2-(1-(Methylsulfonyl)-2-oxo-2-(2-sulfamoylethylamino)ethyl)benzo[d]thiazol-6-yl)benzoic acid] | 274 | < 10 |  |  |
| CS(=O)(=O)C(C(=O)NCCS(N)(=O)=O)c1nc2ccc(-c3ccc(C(=O)NC4COC4)cc3)cc2s1 (stereo not drawn) [Example B178, 4-(2-(1-(methylsulfonyl)-2-oxo-2-((2-sulfamoylethyl)a-mino)ethyl)-1,3-benzothiazol-6-yl)-N-3-oxetanylbenzamide] |  |  | 91 | < 10 |
| COCCNC(=O)c1cccc(-c2ccc3nc(C(C(=O)NCCS(N)(=O)=O)S(=O)(=O)CCC(F)(F)F)sc3c2)c1 (stereo not drawn) [Example B179, N-(2-Methoxyethyl)-3-(2-(2-oxo-2-((2-sulfamoyl-ethyl)amino)-1-((3,3,3-trifluoropropyl)sulfonyl)eth-yl)benzo[d]thiazol-6-yl)benzamide] |  |  | 170 | 24 |
| CS(=O)(=O)C(C(=O)NCCS(N)(=O)=O)c1nc2ccc(-c3ccc4c(c3)CC(=O)N4)cc2s1 (stereo not drawn) [Example B180, 2-(Methylsulfonyl)-2-(6-(2-oxo-2,3-dihydro-1H-indol-5-yl)-1,3-benzothiazol-2-yl)-N-(2-sulfamoylethyl)acetamide] | 170 | < 10 |  |  |
| CS(=O)(=O)C(C(=O)NCCS(N)(=O)=O)c1nc2ccc(-c3ccc4c(c3)C(=O)NC4)cc2s1 (stereo not drawn) [Example B181, 2-(methylsulfonyl)-2-(6-(3-oxo-2,3-dihydro-1H-isoindol-5-yl)-1,3-benzothiazol-2-yl)-N-(2-sulfamoylethyl)acetamide] |  |  | 145 | < 10 |
| CS(=O)(=O)C(C(=O)NCCS(N)(=O)=O)c1nc2ccc(-c3ccc4c(c3)CNC4=O)cc2s1 (stereo not drawn) [Example B182, 2-(methylsulfonyl)-2-(6-(1-oxo-2,3-dihydro-1H-isoindol-5-yl)-1,3-benzothiazol-2-yl)-N-(2-sulfamoylethyl)acetamide] |  |  | 36 | < 10 |
| CS(=O)(=O)C(C(=O)NCCS(N)(=O)=O)c1nc2ccc(-c3ccc4c(c3)NC(=O)C4)cc2s1 (stereo not drawn) [Example B183, 2-(methylsulfonyl)-2-(6-(2-oxo-2,3-dihydro-1H-indol-6-yl)-1,3-benzothiazol-2-yl)-N-(2-sulfamoylethyl)a-cetamide] |  |  | 139 | < 10 |
| COc1ncccc1-c1ccc2nc(C(C(=O)NCCS(N)(=O)=O)S(C)(=O)=O)sc2c1 (stereo not drawn) [Example B184, 2-(6-(2-methoxy-3-pyridinyl)-1,3-benzothiazol-2-yl)-2-(methylsulfonyl)-N-(2-sulfamoylethyl)acetamide] |  |  | 65 | < 10 |

Now from value to compound:

| IC50 (hepatic lipase (HL); [1]) [nM] | IC50 (Endothelial lipase (EL); [2]) [nM] | IC50 (hepatic lipase (HL)) [nM] | IC50 (Endothelial lipase (EL)) [nM] | Compound |
| --- | --- | --- | --- | --- |
| 147 | < 10 |  |  | NS(=O)(=O)CCNC(=O)C(c1nc2ccc(-c3ccc(C(=O)N4CCOCC4)cc3)cc2s1)S(=O)(=O)CCN1CCOCC1 (stereo not drawn) [Example B157, 2-{6-[4-(4-Morpholinylcarbonyl)phenyl]-1,3-benzothiazol-2-yl}-2-{[2-(4-morpholinyl)ethyl]sulfonyl}-N-(2-sulfamoylethyl)acetamide] |
|  |  | 31 | < 10 | NS(=O)(=O)CCNC(=O)C(c1nc2ccc(-c3ccc(C(=O)N4CCOCC4)cc3)cc2s1)S(=O)(=O)CCNC(=O)OCc1ccccc1 (stereo not drawn) [Example B158, benzyl (2-((1-(6-(4-(4-morpholinylcarbonyl)phen-yl)-1,3-benzothiazol-2-yl)-2-oxo-2-((2-sulfamoyl-ethyl)amino)ethyl)sul-fonyl)ethyl)carbamate] |
|  |  | 22 | < 10 | NCCS(=O)(=O)C(C(=O)NCCS(N)(=O)=O)c1nc2ccc(-c3ccc(C(=O)N4CCOCC4)cc3)cc2s1 (stereo not drawn) [Example B159] |
| 13 | < 10 |  |  | CS(=O)(=O)C(C(=O)NCCS(N)(=O)=O)c1nc2ccc(-c3ccc(C(=O)N4CC(F)(F)C4)cc3)cc2s1 (stereo not drawn) [Example B166, 2-(6-(4-(3,3-Difluoroazetidine-1-carbonyl)phenyl)benzo[d]thiazol-2-yl)-2-(methylsulfonyl)-N-(2-sulfamoylethyl)acetamide] |
|  |  | 79 | < 10 | COCCS(=O)(=O)C(C(=O)NCCS(N)(=O)=O)c1nc2ccc(-c3ccc(C(=O)N4CC(F)(F)C4)cc3)cc2s1 (stereo not drawn) [Example B167, 2-(6-(4-((3,3-difluoro-1-azetidinyl)carbonyl)phen-yl)-1,3-benzothiazol-2-yl)-2-((2-methoxyethyl)sul-fonyl)-N-(2-sulfamoylethyl)acetamide] |
|  |  | 60 | < 10 | COCCS(=O)(=O)C(C(=O)NCCS(N)(=O)=O)c1nc2ccc(-c3ccc(C(=O)N4CCC(F)(F)C4)cc3)cc2s1 (stereo not drawn) [Example B168, 2-(6-(4-((3,3-difluoro-1-pyrrolidinyl)carbonyl)phen-yl)-1,3-benzothiazol-2-yl)-2-((2-methoxyethyl)sul-fonyl)-N-(2-sulfamoyl-ethyl)acetamide] |
|  |  | 91 | < 10 | CS(=O)(=O)C(C(=O)NCCS(N)(=O)=O)c1nc2ccc(-c3ccc(C(=O)N4CCC(F)(F)C4)cc3)cc2s1 (stereo not drawn) [Example B169, 2-(6-(4-((3,3-difluoro-1-pyrrolidinyl)carbonyl)phen-yl)-1,3-benzothiazol-2-yl)-2-(methylsulfonyl)-N-(2-sulfamoylethyl)a-cetamide] |
|  |  | 32 | < 10 | NS(=O)(=O)CCNC(=O)C(c1nc2ccc(-c3ccc(C(=O)N4CCC(F)(F)C4)cc3)cc2s1)S(=O)(=O)CCC(F)(F)F (stereo not drawn) [Example B170, 2-(6-(4-((3,3-difluoro-1-pyrrolidinyl)carbonyl)phen-yl)-1,3-benzothiazol-2-yl)-N-(2-sulfamoylethyl)-2-((3,3,3-trifluoropropyl)sul-fonyl)acetamide] |
|  |  | 19 | < 10 | CS(=O)(=O)C(C(=O)NCCS(N)(=O)=O)c1nc2ccc(-c3ccc(C(=O)N4CCC(F)(F)CC4)cc3)cc2s1 (stereo not drawn) [Example B171, 2-(6-(4-((4,4-difluoro-1-piperidinyl)carbonyl)phen-yl)-1,3-benzothiazol-2-yl)-2-(methylsulfonyl)-N-(2-sulfamoylethyl)a-cetamide] |
| 402 | < 10 |  |  | CC1(O)CN(C(=O)c2ccc(-c3ccc4nc(C(C(=O)NCCS(N)(=O)=O)S(C)(=O)=O)sc4c3)cc2)C1 (stereo not drawn) [Example B174, 2-(6-(4-(3-Hydroxy-3-methylazetidine-1-carbonyl)phenyl)benzo[d]thiazol-2-yl)-2-(methylsulfonyl)-N-(2-sulfamoylethyl)acetamide] |
|  |  | 118 | < 10 | COC1CN(C(=O)c2ccc(-c3ccc4nc(C(C(=O)NCCS(N)(=O)=O)S(C)(=O)=O)sc4c3)cc2)C1 (stereo not drawn) [Example B175, 2-(6-(4-((3-methoxy-1-azetidinyl)carbonyl)phen-yl)-1,3-benzothiazol-2-yl)-2-(methylsulfonyl)-N-(2-sulfamoylethyl)a-cetamide] |
|  |  | 92 | < 10 | CC1(O)CCN(C(=O)c2ccc(-c3ccc4nc(C(C(=O)NCCS(N)(=O)=O)S(C)(=O)=O)sc4c3)cc2)CC1 (stereo not drawn) [Example B176, 2-(6-(4-((4-hydroxy-4-methyl-1-piperidinyl)car-bonyl)phenyl)-1,3-benzothiazol-2-yl)-2-(methylsulfonyl)-N-(2-sulfamoylethyl)acetamide] |
|  |  | 495 | < 10 | CS(=O)(=O)C(C(=O)NCCS(N)(=O)=O)c1nc2ccc(-c3ccc(C(=O)N4CCC(O)CC4)cc3)cc2s1 (stereo not drawn) [Example B177, 2-(6-(4-((4-hydroxy-1-piperidinyl)carbonyl)phen-yl)-1,3-benzothiazol-2-yl)-2-(methylsulfonyl)-N-(2-sulfamoylethyl)a-cetamide] |
